Results reported in patent US20260217701A1, “SELECTIVE BET INHIBITORS AND USES THEREOF” (Tay Therapeutics Limited, priority 2022, published 2026).
Values joined by “and” are separate entries in the source; they are usually repeats but may differ in a detail not shown here. Equal entries are not always repeated. Blank lines part the entries; values can stand above or below the compound they belong to.

Legend:
BRD4 BD2 = molecular target: T1, BRD4 BD2 (Homo sapiens, UniProt O60885); assay: NanoBRET bromodomain assay, NanoLuc-BRD4-BD2 in HEK293 cells; assay type: binding; conditions: nanoBRET assay, given as symbol only
T1 construct: HEK293 cells were transfected using NanoLuc-BRD4-BD1 or NanoLuc-BRD4-BD2 fusion vectors
Experimental: Plates were then incubated at 37° C.+5% CO2 incubator for 2 hours.
Fold Selectivity Calculated (IC50 BD1/IC50 BD2).

[1] = system: imiquimod-induced psoriasis; assay: Imiquimod-induced psoriasis model; assay type: in vivo, mice; parameters: Spleen Weight / Spleen Weight Ratio: unit not given here; conditions: for PASI Scores: IMI + Deucravacitinib 3 mg/kg; for Mean scores of the presence of erythema on the skin of animals at the area of induction of psoriasis / Mean scores of the presence of induration on the skin of animals at the area of induction of psoriasis / Mean scores of the presence of peeling on the skin of animals at the area of induction of psoriasis: mean ± SEM
Text: Imiquimod-induced psoriasis is a model of psoriasis in mice that induces psoriasis-like dermatitis. The pathology closes resembles human plaque-type psoriasis and is a valuable tool for testing new therapies against psoriasis. […] Compound A was formulated in a 5% DMSO/40% PEG-400/55% (0.9% NaCl w/v water) solution (Table 2F). Experimental groups for the study are outlined in Table 4. Prior to study initiation, the backs of all animals in the study were depilated to allow for induction of psoriasis and monitoring of disease progression.
Once assigned to experimental groups, on Day 1 and continuing through Day 14, topical imiquimod (IMI; Aldara™ containing 5% Imiquimod) was administered to the dorsal depilated animals, and animals in group 1 received topical administration of Excipial® hydrocream (65 mg). […] Clobetasol was applied topically for animals in group 11.
Body weights were recorded three times a week from Day 1 to Day 8, and daily from Day 8 until the study end at Day 15. At termination on D15 the spleen weight ratio was determined. Disease severity was assessed using the psoriasis area severity index (PASI) daily from Day 8 until study completion on Day 15. The PASI score was calculated based on three parameters (presence of erythema, induration of the skin, and peeling of the skin at the area of induction) on a scale of 0 to 4 (0=no more or absence, 1=low, 2=moderate, 3=high, 4=severe). The PASI score for each animal was calculated as the sum of the score of each parameter measured. The score of the use of enrichment (SUE) was also assessed daily from Day 8 to Day 15. At study completion on Day 15, animal behavior was evaluated using an open field to assess distance travelled, number scratching, and licking and rearing performed in 10 minutes. Upon study termination animals were sacrificed, the spleen was excised and weighed, and blood samples were collected. Serum was isolated from the blood sample for cytokine and other biomarker analysis. IL-1B, IL-6, IL-17, and TNF-α assayed using simple plex technique on an ELLA automated immunoassay system. IL-22 and IL-23 were assayed by ELISA.
The imiquimod-induced model of psoriasis was used to assess the efficacy of Compound A in treating psoriasis. […] Treatment started on Day 8 after induction so reference to day 1 of treatment is to Day 8 and day 7 of treatment is to Day 14.

[2] = IMI-psoriasis model, behavioral evaluation D15, 3 mg/kg, individual animals
[3] = IMI-psoriasis model, behavioral evaluation, 3 mg/kg, individual animals
[4] = IMI-psoriasis model, mice, 3 mg/kg, individual animals
[5] = IMI + 3 mg/kg, D8 (before start of treatment)

Selectivity (BD1/BD2) (BRD4 BD2; higher number denotes higher selectivity): >>>>
BD2 (BRD4 BD2; lower number denotes higher potency): <
Compound: Cn1cc(-c2ccccc2)c(-c2cn(C)c(=O)c3[nH]c(-c4cnn(C(F)(F)F)c4)c(F)c23)cc1=O [Compound D, 3-fluoro-6-methyl-4-(1-methyl-2-oxo-5-phenyl-1,2-dihydropyridin-4-yl)-2-(1-(trifluoromethyl)-1H-pyrazol-4-yl)-1,6-dihydro-7H-pyrrolo[2,3-c]pyridin-7-one]

Compound: Deucravacitinib [reference compound]
symptoms by day 15 (representative images) ([1]; 3 mg/kg): nearly entirely symptom free
PASI-90 (change in PASI score ≥90%) by day 7 of treatment ([1]; 3 mg/kg IP once daily): surpassed PASI-90
Body Weight D1 ([1]; IMI + 3 mg/kg, Day 1 (before treatment start on Day 8), individual animals, 3 mg/kg, in g (unit assumed)): 18.26 and 17.37 and 16.82 and 17.07 and 16.32 and 18.04 and 16.47 and 17.58
Body Weight D3 ([1]; IMI + 3 mg/kg, Day 3 (before treatment start on Day 8), individual animals, 3 mg/kg, in g (unit assumed)): 16.20 and 16.31 and 14.76 and 15.24 and 15.52 and 15.99 and 14.97 and 15.55
Body Weight D5 ([1]; IMI + 3 mg/kg, Day 5 (before treatment start on Day 8), individual animals, 3 mg/kg, in g (unit assumed)): 18.16 and 16.94 and 15.74 and 15.23 and 15.99 and 17.09 and 14.94 and 16.50
Body Weight D7 ([1]; IMI + 3 mg/kg, Day 7 (before treatment start on Day 8), individual animals, 3 mg/kg, in g (unit assumed)): 17.33 and 17.08 and 15.79 and 15.48 and 16.18 and 17.55 and 15.22 and 16.65
Body Weight D8 ([1]; IMI + 3 mg/kg, Day 8 (first day of treatment), individual animals, 3 mg/kg, in g (unit assumed)): 17.09 and 17.16 and 15.63 and 15.50 and 15.52 and 17.05 and 14.52 and 15.81
Body Weight D9 ([1]; IMI + 3 mg/kg, Day 9, individual animals, 3 mg/kg, in g (unit assumed)): 16.60 and 16.54 and 15.63 and 15.57 and 16.01 and 16.79 and 14.75 and 13.93
Body Weight D10 ([1]; IMI + 3 mg/kg, Day 10, individual animals, 3 mg/kg, in g (unit assumed)): 16.71 and 16.43 and 16.08 and 15.84 and 14.94 and 16.16 and 14.20
Body Weight D11 ([1]; IMI + 3 mg/kg, Day 11, individual animals, 3 mg/kg, in g (unit assumed)): 17.38 and 15.87 and 15.51 and 15.55 and 16.43 and 14.72
Body Weight D12 ([1]; IMI + 3 mg/kg, Day 12, individual animals, 3 mg/kg, in g (unit assumed)): 17.70 and 15.90 and 15.59 and 15.82 and 17.15 and 15.06
Body Weight D13 ([1]; IMI + 3 mg/kg, Day 13, individual animals, 3 mg/kg, in g (unit assumed)): 17.75 and 16.24 and 15.77 and 15.95 and 16.97 and 14.52
Body Weight D14 ([1]; IMI + 3 mg/kg, Day 14, individual animals, 3 mg/kg, in g (unit assumed)): 18.00 and 16.31 and 15.59 and 16.06 and 17.07 and 15.08
Body Weight D15 ([1]; IMI + 3 mg/kg, Day 15, individual animals, 3 mg/kg, in g (unit assumed)): 18.03 and 16.39 and 16.00 and 16.29 and 17.17 and 15.22
MBWC D1-D8 ([1]; IMI + 3 mg/kg, body weight change Day 1 to Day 8 (before treatment), individual animals, 3 mg/kg): −1.17 and −0.21 and −1.19 and −1.57 and −0.80 and −0.99 and −1.95 and −1.77
MBWC D8-D15 ([1]; IMI + 3 mg/kg, body weight change Day 8 to Day 15 (treatment period), individual animals, 3 mg/kg): 0.94 and 0.76 and 0.50 and 0.77 and 0.12 and 0.70
PASI Scores ([1]; D8 (day treatment started), individual animals): 6 (3×) and 7 and 10 and 8 (3×)
PASI Scores ([1]; D9, individual animals): 7 (3×) and 6 (4×) and 8
PASI Scores ([1]; D10, individual animals): 6 (6×) and 7
PASI Scores ([1]; D11, individual animals): 6 (3×) and 5 (2×) and 4
PASI Scores ([1]; D12, individual animals): 4 (2×) and 3 (4×)
PASI Scores ([1]; D13, individual animals): 2 (3×) and 0 (2×) and 4
PASI Scores ([1]; D14, individual animals): 1 (4×) and 0 and 2
PASI Scores ([1]; D15, individual animals): 1 (2×) and 0 (4×)
Use Enrichment D1 ([1]; IMI-psoriasis model, D1, 3 mg/kg, per cage (two animals)): 4.0
Use Enrichment D10 ([1]; IMI-psoriasis model, D10, 3 mg/kg, per cage (two animals)): 0.0
Use Enrichment D14 ([1]; IMI-psoriasis model, D14, 3 mg/kg, per cage (two animals)): 3.0 and 3.5 and 2.0
Use Enrichment D15 ([1]; IMI-psoriasis model, D15, 3 mg/kg, per cage (two animals)): 4.0 and 2.0
Number Licking [1, 2]: 1 and 2 (2×) and 7 and 8
Number Licking + Scratching [1, 2]: 2 (3×) and 10 and 20
Number Scratching [1, 2]: 1 and 0 (2×) and 3 and 12
Distance Traveled [1, 3]: 14 m (2×) and 9 m and 19 m and 12 m
Number Rearings [1, 3]: 31 and 22 and 58 and 68 and 38
Use Enrichment Mean D1-D8 ([1]; IMI-psoriasis model, mean D1-D8, 3 mg/kg, per cage (two animals)): 2.50 and 2.00
Spleen Weight [1, 4]: 195.00 and 187.27 and 171.30 and 177.57 and 171.11 and 127.21
Spleen Weight Ratio [1, 4]: 1081.53 and 1142.59 and 1070.63 and 1090.06 and 996.56 and 835.81
Mean scores of the presence of erythema on the skin of animals at the area of induction of psoriasis [1, 5]: 2.1 ± 0.1
Mean scores of the presence of induration on the skin of animals at the area of induction of psoriasis [1, 5]: 2.8 ± 0.3
Mean scores of the presence of peeling on the skin of animals at the area of induction of psoriasis [1, 5]: 2.5 ± 0.2
Mean scores of the presence of erythema on the skin of animals at the area of induction of psoriasis ([1]; IMI + 3 mg/kg, D9): 2.1 ± 0.1
Mean scores of the presence of induration on the skin of animals at the area of induction of psoriasis ([1]; IMI + 3 mg/kg, D9): 2.4 ± 0.2
Mean scores of the presence of peeling on the skin of animals at the area of induction of psoriasis ([1]; IMI + 3 mg/kg, D9): 2.1 ± 0.1
Mean scores of the presence of erythema on the skin of animals at the area of induction of psoriasis ([1]; IMI + 3 mg/kg, D10): 2.3 ± 0.2
Mean scores of the presence of induration on the skin of animals at the area of induction of psoriasis ([1]; IMI + 3 mg/kg, D10): 2.0 ± 0.2
Mean scores of the presence of peeling on the skin of animals at the area of induction of psoriasis ([1]; IMI + 3 mg/kg, D10): 1.9 ± 0.1
Mean scores of the presence of erythema on the skin of animals at the area of induction of psoriasis ([1]; IMI + 3 mg/kg, D11): 1.8 ± 0.4
Mean scores of the presence of induration on the skin of animals at the area of induction of psoriasis ([1]; IMI + 3 mg/kg, D11): 1.5 ± 0.2
Mean scores of the presence of peeling on the skin of animals at the area of induction of psoriasis ([1]; IMI + 3 mg/kg, D11): 2.0 ± 0.3
Mean scores of the presence of erythema on the skin of animals at the area of induction of psoriasis ([1]; IMI + 3 mg/kg, D12): 1.8 ± 0.2
Mean scores of the presence of induration on the skin of animals at the area of induction of psoriasis ([1]; IMI + 3 mg/kg, D12): 0.5 ± 0.2
Mean scores of the presence of peeling on the skin of animals at the area of induction of psoriasis ([1]; IMI + 3 mg/kg, D12): 1.0 ± 0.0
Mean scores of the presence of erythema on the skin of animals at the area of induction of psoriasis ([1]; IMI + 3 mg/kg, D13): 0.8 ± 0.3
Mean scores of the presence of induration on the skin of animals at the area of induction of psoriasis ([1]; IMI + 3 mg/kg, D13): 0.0 ± 0.0
Mean scores of the presence of peeling on the skin of animals at the area of induction of psoriasis ([1]; IMI + 3 mg/kg, D13): 0.8 ± 0.3
Mean scores of the presence of erythema on the skin of animals at the area of induction of psoriasis ([1]; IMI + 3 mg/kg, D14): 0.2 ± 0.2
Mean scores of the presence of induration on the skin of animals at the area of induction of psoriasis ([1]; IMI + 3 mg/kg, D14): 0.0 ± 0.0
Mean scores of the presence of peeling on the skin of animals at the area of induction of psoriasis ([1]; IMI + 3 mg/kg, D14): 0.8 ± 0.2
Mean scores of the presence of erythema on the skin of animals at the area of induction of psoriasis ([1]; IMI + 3 mg/kg, D15): 0.0 ± 0.0
Mean scores of the presence of induration on the skin of animals at the area of induction of psoriasis ([1]; IMI + 3 mg/kg, D15): 0.0 ± 0.0
Mean scores of the presence of peeling on the skin of animals at the area of induction of psoriasis ([1]; IMI + 3 mg/kg, D15): 0.3 ± 0.2
Mean PASI Scores in IMI-Psoriasis Model ([1]; mice, IMI + 3 mg/kg, D8 (before start of treatment)): 7.4 ± 0.5
Mean PASI Scores in IMI-Psoriasis Model ([1]; mice, IMI + 3 mg/kg, D9): 6.6 ± 0.3
Mean PASI Scores in IMI-Psoriasis Model ([1]; mice, IMI + 3 mg/kg, D10): 6.1 ± 0.1
Mean PASI Scores in IMI-Psoriasis Model ([1]; mice, IMI + 3 mg/kg, D11): 5.3 ± 0.3
Mean PASI Scores in IMI-Psoriasis Model ([1]; mice, IMI + 3 mg/kg, D12): 3.3 ± 0.2
Mean PASI Scores in IMI-Psoriasis Model ([1]; mice, IMI + 3 mg/kg, D13): 1.7 ± 0.6
Mean PASI Scores in IMI-Psoriasis Model ([1]; mice, IMI + 3 mg/kg, D14): 1.0 ± 0.3
Mean PASI Scores in IMI-Psoriasis Model ([1]; mice, IMI + 3 mg/kg, D15): 0.3 ± 0.2
use of enrichment (nesting) ([1]; relative to vehicle-treated psoriasis animals): about half that seen with Compound A
